Among the data in article doi:10.1101/2022.12.11.519956v1 (biorxiv, 2022) are IC50 values, retold here.

In the test the target is T1, SauUSI (Staphylococcus aureus, UniProt A0A0H2XK17).
T1 sequence (A0A0H2XK17 1-953): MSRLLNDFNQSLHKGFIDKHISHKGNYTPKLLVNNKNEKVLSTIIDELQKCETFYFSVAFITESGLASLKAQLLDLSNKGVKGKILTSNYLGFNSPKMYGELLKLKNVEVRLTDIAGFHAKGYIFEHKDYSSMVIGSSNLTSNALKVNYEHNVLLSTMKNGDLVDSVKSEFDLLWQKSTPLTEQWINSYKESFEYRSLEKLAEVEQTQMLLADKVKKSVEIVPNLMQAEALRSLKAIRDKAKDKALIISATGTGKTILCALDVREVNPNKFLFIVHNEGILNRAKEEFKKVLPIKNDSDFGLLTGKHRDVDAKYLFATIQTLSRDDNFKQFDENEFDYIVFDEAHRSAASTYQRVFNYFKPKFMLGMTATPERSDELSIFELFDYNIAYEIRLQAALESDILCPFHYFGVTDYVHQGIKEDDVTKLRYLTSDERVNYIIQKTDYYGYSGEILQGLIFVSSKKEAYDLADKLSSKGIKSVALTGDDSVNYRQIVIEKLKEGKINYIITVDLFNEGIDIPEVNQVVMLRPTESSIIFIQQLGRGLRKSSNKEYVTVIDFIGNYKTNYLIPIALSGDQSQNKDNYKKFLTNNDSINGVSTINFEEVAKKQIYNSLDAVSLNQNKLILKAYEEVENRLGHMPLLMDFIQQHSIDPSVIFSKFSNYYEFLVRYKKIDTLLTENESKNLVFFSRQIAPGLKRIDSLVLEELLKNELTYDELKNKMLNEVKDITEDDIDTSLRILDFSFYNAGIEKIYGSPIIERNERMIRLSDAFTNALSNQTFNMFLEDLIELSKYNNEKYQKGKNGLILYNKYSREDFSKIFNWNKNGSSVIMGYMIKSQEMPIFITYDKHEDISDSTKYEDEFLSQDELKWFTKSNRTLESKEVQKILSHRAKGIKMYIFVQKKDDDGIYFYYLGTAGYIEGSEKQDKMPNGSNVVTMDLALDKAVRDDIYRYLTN
Description: biochemical.

For the compound `Nc1ncnc2c1ncn2[C@@H]1O[C@H](COP(=O)(O)OP(=O)(O)OP(=O)(O)O)[C@@H](O)[C@H]1O` [ATP], the half-maximal inhibitory concentration (IC50) is ~760 µM.

In general, IC50 refers to the concentration at which inhibition is half-maximal.
